Results published in ChEMBL document CHEMBL1287765, “Discovery of novel quinolinone adenosine A2B antagonists” (Bioorg Med Chem Lett, 2010).

Assay: Aqueous solubility of compound
Type: physicochemical
Details: buffer

| Structure (SMILES) | solubility |
| --- | --- |
| COc1ccc2[nH]c(=O)c(S(C)(=O)=O)c(CCc3ccccc3)c2c1 | Insoluble |
| CS(=O)(=O)c1c(CCc2ccccc2)c2cc(OCC(=O)Nc3ccccc3)ccc2[nH]c1=O | Insoluble |
| CS(=O)(=O)c1c(CCc2ccccc2)c2cc(OCC(=O)NCC3CC3)ccc2[nH]c1=O | Insoluble |
| COCCCNC(=O)COc1ccc2[nH]c(=O)c(S(C)(=O)=O)c(CCc3ccccc3)c2c1 | Insoluble |
| CS(=O)(=O)c1c(CCc2ccccc2)c2cc(OCC(=O)NCc3ccccc3)ccc2[nH]c1=O | Insoluble |

Further lines, results first:

| solubility | Structure (SMILES) |
| --- | --- |
| Insoluble | CN(Cc1ccc(Cl)c(Cl)c1)C(=O)COc1ccc2[nH]c(=O)c(S(C)(=O)=O)c(CCc3ccccc3)c2c1 |
| Insoluble | CS(=O)(=O)c1c(CCc2ccccc2)c2cc(OCC(=O)NCc3ccc(Cl)c(Cl)c3)ccc2[nH]c1=O |
| Insoluble | Cn1c(=O)c(S(C)(=O)=O)c(CCc2ccccc2)c2cc(OCC(=O)NCc3ccc(Cl)c(Cl)c3)ccc21 |
